# Test results: patent US7125990B2, “Imidazolyl derivatives as corticotropin releasing factor inhibitors” (Bristol-Myers Squibb COmpany, priority 2001, dated 2006)
# Molecular target: T1, CRF1 receptors (Homo sapiens, UniProt P34998)
# T1 construct: endogenous in cells; host or cells: IMR-32 cells, transformed with 2.5 µM 5'-bromo-2'-deoxyuridine for 10 days; membrane preparation
# T1 sequence (P34998 24-415): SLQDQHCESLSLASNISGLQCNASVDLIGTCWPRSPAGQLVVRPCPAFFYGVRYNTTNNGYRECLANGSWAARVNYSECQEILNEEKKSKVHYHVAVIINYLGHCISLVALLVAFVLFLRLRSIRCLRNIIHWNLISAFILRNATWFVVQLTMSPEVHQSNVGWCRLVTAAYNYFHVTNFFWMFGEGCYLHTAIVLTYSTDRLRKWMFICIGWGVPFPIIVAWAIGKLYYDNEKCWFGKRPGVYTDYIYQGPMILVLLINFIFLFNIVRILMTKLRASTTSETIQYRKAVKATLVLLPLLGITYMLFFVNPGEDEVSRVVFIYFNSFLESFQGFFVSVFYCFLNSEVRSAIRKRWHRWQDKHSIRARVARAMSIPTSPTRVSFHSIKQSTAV
# Test: CRF1 receptor radioligand binding assay ([125I]-oCRF competition, IMR-32 cell membranes)
# Settings: IMR-32 cell membranes, [125I]-oCRF 100 pM; read-out: Ki (CRF-1R)
# Procedure: CRF1 receptor antagonists, by occupying the same receptors, blocks the accessibility of the receptors to CRF, a hypothalamic factor mediating body's responses to physiological and psychological stress. The following radioligand binding assay examines the ability of the antagonists to bind the CRF1 receptors by assessing their ability to compete with binding of CRF to the receptors in cell membrane.
# Tissue culture and membrane preparation. IMR-32 cells were grown at 37° C. in 5% CO2 as a monolayer in medium consisting of MEM supplemented with 10% heat-inactivated fetal bovine serum, 0.1 mM nonessential amino acids, 1 mM sodium pyruvate and 2 mM L-glutamine. […] After transformation, cells were rinsed twice with phosphate-buffered saline, and incubated for 10–15 min. at 4° C. in homogenization buffer consisting of 50 mM Tris (pH 7.2), 10 mM MgCl2 and 2 mM EGTA. Cells were transferred from plates to polypropylene tubes (16×100 mm), homogenized and centrifuged at 32,000×g for 15 min. Pellets were resuspended by homogenization in buffer and centrifuged at 32,000×g for 15 min. Pellets were resuspended in homogenization buffer then stored at −80° C. until needed.
# Radioligand binding assays. […] The assay buffer consisted of 50 mM Tris (pH 7.2), 10 mM MgCl2, 0.5% BSA, 0.005% Triton X-100, 10 μg/mL aprotinin and 10 μg/mL leupeptin. Assays were stopped by addition of ice-cold wash buffer (50 mM Tris, pH 7.4 and 0.2% BSA). Filtration over glass fiber filters (Whatman GF/B) previously soaked in 50 mM Tris, pH 7.2 and 1% BSA was carried out using a Brandel cell harvester. Filters were washed with 10 mL of ice-cold wash buffer. Non-specific binding was defined with 10 μM oCRF. IC50 values for oCRF and test compounds were calculated by nonlinear regression using a one-site binding curve (GraphPad Prism).
row,Structure (SMILES),Ki [µM]
1,"CCc1nc2n(c1C(=O)N(CC1CC1)CC(F)(F)F)CCN2c1c(C)cc(C)cc1C [Example 5, 2-Ethyl-7-(2,4,6-trimethyl-phenyl)-6,7-dihydro-5H-imidazo[1,2-a]imidazole-3-carboxylic acid cyclopropylmethyl-(2,2,2-trifluoro-ethyl)-amide]",< 0.1
2,"CCCN(CC(F)(F)F)C(=O)c1c(CC)nc2n1CCN2c1c(C)cc(C)cc1C [Example 6, 2-Ethyl-7-(2,4,6-trimethyl-phenyl)-6,7-dihydro-5H-imidazo[1,2-a]imidazole-3-carboxylic acid propyl-(2,2,2-trifluoro-ethyl)-amide]",< 0.1
3,"CCc1nc2n(c1C(=O)N(CC1CC1)CC(F)(F)C(F)(F)F)CCN2c1c(C)cc(C)cc1C [Example 7, 2-Ethyl-7-(2,4,6-trimethyl-phenyl)-6,7-dihydro-5H-imidazo[1,2-a]imidazole-3-carboxylic acid cyclopropylmethyl-(3,3,3,2,2-pentafluoro-propyl)-amide]",< 0.1
4,"CCc1nc2n(c1C(=O)N(CC)CC1CC1)CCN2c1c(C)cc(C)cc1C [Example 10, 2-Ethyl-7-(2,4,6-trimethyl-phenyl)-6,7-dihydro-5H-imidazo[1,2-a]imidazole-3-carboxylic acid cyclopropylmethyl-(ethyl)-amide]",< 0.1
5,"CCCN(CCC)C(=O)c1c(CC)nc2n1CCN2c1c(C)cc(C)cc1C [Example 11, 2-Ethyl-7-(2,4,6-trimethyl-phenyl)-6,7-dihydro-5H-imidazo[1,2-a]imidazole-3-carboxylic acid dipropyl-amide]",< 1
6,"CCCN(CCC(F)(F)F)C(=O)c1c(CC)nc2n1CCN2c1c(C)cc(C)cc1C [Example 12, 2-Ethyl-7-(2,4,6-trimethyl-phenyl)-6,7-dihydro-5H-imidazo[1,2-a]imidazole-3-carboxylic acid propyl-(3,3,3-trifluoropropyl)-amide]",< 1
7,"CCCN(CCc1ccccc1)C(=O)c1c(CC)nc2n1CCN2c1c(C)cc(C)cc1C [Example 13, 2-Ethyl-7-(2,4,6-trimethyl-phenyl)-6,7-dihydro-5H-imidazo[1,2-a]imidazole-3-carboxylic acid phenethyl-propyl-amide]",< 1
8,"CCc1nc2n(c1C(=O)N(CCC(F)(F)F)Cc1ccc(Cl)cc1)CCN2c1c(C)cc(C)cc1C [Example 14, 2-Ethyl-7-(2,4,6-trimethyl-phenyl)-6,7-dihydro-5H-imidazo[1,2-a]imidazole-3-carboxylic acid (4-chloro-benzyl)-(3,3,3-trifluoro-propyl)-amide]",< 1
9,"CCc1nc2n(c1C(=O)N(CCC1CC1)CCC(F)(F)F)CCN2c1c(C)cc(C)cc1C [Example 17, 2-Ethyl-7-(2,4,6-trimethyl-phenyl)-6,7-dihydro-5H-imidazo[1,2-a]imidazole-3-carboxylic acid (2-cyclopropyl-ethyl)-(3,3,3-trifluoro-propyl)-amide]",< 1
10,"CCCN(CCC1CC1)C(=O)c1c(CC)nc2n1CCN2c1c(C)cc(C)cc1C [Example 20, 2-Ethyl-7-(2,4,6-trimethyl-phenyl)-6,7-dihydro-5H-imidazo[1,2-a]imidazole-3-carboxylic acid (2-cyclopropyl-ethyl)-propyl-amide]",< 1
11,"C=CCN(CC=C)C(=O)c1c(CC)nc2n1CCN2c1c(C)cc(C)cc1C [Example 22, 2-Ethyl-7-(2,4,6-trimethyl-phenyl)-6,7-dihydro-5H-imidazo[1,2-a]imidazole-3-carboxylic acid diallylamide]",< 10
12,"CCc1nc2n(c1C(=O)N(CCC(F)(F)F)Cc1cccc(F)c1)CCN2c1c(C)cc(C)cc1C [Example 24, 2-Ethyl-7-(2,4,6-trimethyl-phenyl)-6,7-dihydro-5H-imidazo[1,2-a]imidazole-3-carboxylic acid (3-fluoro-benzyl)-(3,3,3-trifluoro-propyl)-amide]",< 10

# More lines, now with the values ahead:
row,Ki [µM],Structure (SMILES)
1,< 1,"CCCN(CC1CC1)C(=O)c1c(C)nc2n1CCN2c1c(C)cc(C)cc1C [Example 1, 2-Methyl-7-(2,4,6-trimethyl-phenyl)-6,7-dihydro-5H-imidazo[1,2-α]imidazole-3-carboxylic acid cyclopropylmethyl-propyl-amide]"
2,< 0.1,"CCCN(CC1CC1)C(=O)c1c(CC)nc2n1CCN2c1c(C)cc(C)cc1C [Example 2, 2-Ethyl-7-(2,4,6-trimethyl-phenyl)-6,7-dihydro-5H-imidazo[1,2-α]imidazole-3-carboxylic acid cyclopropylmethyl-propyl-amide]"
3,< 0.1,"CCc1nc2n(c1C(=O)N(CC1CC1)CC1CC1)CCN2c1c(C)cc(C)cc1C [Example 8, 2-Ethyl-7-(2,4,6-trimethyl-phenyl)-6,7-dihydro-5H-imidazo[1,2-a]imidazole-3-carboxylic acid cyclopropylmethyl-(cyclopropylmethyl)-amide]"
4,< 0.1,"CCc1nc2n(c1C(=O)N(CCC(F)(F)F)CC1CC1)CCN2c1c(C)cc(C)cc1C [Example 9, 2-Ethyl-7-(2,4,6-trimethyl-phenyl)-6,7-dihydro-5H-imidazo[1,2-a]imidazole-3-carboxylic acid cyclopropylmethyl-(3,3,3-trifluoro-propyl)-amide]"
5,< 1,"CCCCN(CC)C(=O)c1c(CC)nc2n1CCN2c1c(C)cc(C)cc1C [Example 15, 2-Ethyl-7-(2,4,6-trimethyl-phenyl)-6,7-dihydro-5H-imidazo[1,2-a]imidazole-3-carboxylic acid butyl-ethyl-amide]"
6,< 1,"CCc1nc2n(c1C(=O)N(CC)CCC1CC1)CCN2c1c(C)cc(C)cc1C [Example 16, 2-Ethyl-7-(2,4,6-trimethyl-phenyl)-6,7-dihydro-5H-imidazo[1,2-a]imidazole-3-carboxylic acid (2-cyclopropyl-ethyl)-ethyl-amide]"
7,< 1,"CCc1nc2n(c1C(=O)N(CCC(F)(F)F)Cc1ccccc1)CCN2c1c(C)cc(C)cc1C [Example 18, 2-Ethyl-7-(2,4,6-trimethyl-phenyl)-6,7-dihydro-5H-imidazo[1,2-a]imidazole-3-carboxylic acid benzyl-(3,3,3-trifluoro-propyl)-amide]"
8,< 1,"C=CCN(CCC)C(=O)c1c(CC)nc2n1CCN2c1c(C)cc(C)cc1C [Example 19, 2-Ethyl-7-(2,4,6-trimethyl-phenyl)-6,7-dihydro-5H-imidazo[1,2-a]imidazole-3-carboxylic acid allyl-propyl-amide]"
9,< 10,"CCCN(Cc1ccc(Cl)cc1)C(=O)c1c(CC)nc2n1CCN2c1c(C)cc(C)cc1C [Example 21, 2-Ethyl-7-(2,4,6-trimethyl-phenyl)-6,7-dihydro-5H-imidazo[1,2-a]imidazole-3-carboxylic acid (4-chloro-benzyl)-propyl-amide]"
10,< 10,"CCc1nc2n(c1C(=O)N(CCc1ccccc1)CCC(F)(F)F)CCN2c1c(C)cc(C)cc1C [Example 23, 2-Ethyl-7-(2,4,6-trimethyl-phenyl)-6,7-dihydro-5H-imidazo[1,2-a]imidazole-3-carboxylic acid phenethyl-(3,3,3-trifluoro-propyl)-amide]"
11,< 10,"CCCN(Cc1ccccc1)C(=O)c1c(CC)nc2n1CCN2c1c(C)cc(C)cc1C [Example 25, 2-Ethyl-7-(2,4,6-trimethyl-phenyl)-6,7-dihydro-5H-imidazo[1,2-a]imidazole-3-carboxylic acid benzyl-propyl-amide]"
